Drawing on patent publication US8586588B2, “Aryl pyridazinone derivatives and their use as H3 receptor ligands” (Cephalon, Inc., priority 2006, dated 2013), this text covers melting point for 24 compounds.

Where a name gives a salt, the structure may show the parent alone.

The melting point is the temperature of the solid-liquid transition.

Turning to `CC(C)n1ncc(-c2ccc(OCCCN3CCC[C@H]3C)cc2)cc1=O` (as salt: HCl) [Example 128, 2-Isopropyl-5-{4-[3-((R)-2-methyl-pyrrolidin-1-yl)-propoxy]-phenyl}-2H-pyridazin-3-one], the melting point was in the range of 251 to 253 °C.

Take `CCCn1nc(-c2ccc(OCCCN3CCC(C)CC3)cc2)c2sccc2c1=O` (as salt: HCl) [Example 34, 7-{4-[3-(4-Methyl-piperidin-1-yl)-propoxy]-phenyl}-5-propyl-5H-thieno[2,3-d]pyridazin-4-one]: the melting point was 168 to 170 °C.

Regarding `Cn1nc(-c2ccc(OCCCN3CCC[C@H]3CO)cc2)c2c(c1=O)CCCC2` (as salt: HCl) [Example 124, 4-{4-[3-((S)-2-Hydroxymethyl-pyrrolidin-1-yl)-propoxy]-phenyl}-2-methyl-5,6,7,8-tetrahydro-2H-phthalazin-1-one], the melting point was in the range of 120 to 122 °C.

Regarding `C[C@@H]1CCCN1CCCOc1cccc(-c2nn(C)c(=O)c3c2CCC3)c1` (as salt: HCl) [Example 125, 2-Methyl-4-{3-[3-((R)-2-methyl-pyrrolidin-1-yl)-propoxy]-phenyl}-2,5,6,7-tetrahydro-cyclopenta[d]pyridazin-1-one], the melting point lay within 172 to 174 °C.

The compound `O=c1c2ccsc2c(-c2ccc(OCCCN3CCCCC3)cc2)nn1Cc1ccc(Cl)cc1` (as salt: HCl) [Example 37, 5-(4-Chloro-benzyl)-7-[4-(3-piperidin-1-yl-propoxy)-phenyl]-5H-thieno[2,3-d]pyridazin-4-one] registered a melting point of 227 to 229 °C.

`C[C@@H]1CCCN1CCCOc1ccc(-c2nn(C)c(=O)c3ccccc23)cc1` (as salt: HCl) [Example 49, 2-Methyl-4-{4-[3-((R)-2-methyl-pyrrolidin-1-yl)-propoxy]-phenyl}-2H-phthalazin-1-one] showed a melting point of 216 to 217 °C.

Turning to `C[C@@H]1CCCN1CCCOc1ccc(-c2ccc(=O)n(Cc3ccccc3)n2)cc1` (as salt: HCl) [Example 18, 2-Benzyl-6-{4-[3-((R)-2-methyl-pyrrolidin-1-yl)-propoxy]-phenyl}-2H-pyridazin-3-one], the melting point lay in the range of 228 to 230 °C.

`CC1CC(c2ccc(OCCCN3CCC[C@H]3C)cc2)=NNC1=O` (stereo partly drawn) (as salt: HCl) [Example 121, 4-Methyl-6-{4-[3-((R)-2-methyl-pyrrolidin-1-yl)-propoxy]-phenyl}-4,5-dihydro-2H-pyridazin-3-one] came in with a melting point of 201 to 203 °C.

With `C[C@@H]1CCCN1CCCOc1ccc2c(c1)CCc1cc(=O)n(-c3ccccc3)nc1-2` (as salt: HCl) [Example 76, 8-[3-((R)-2-Methyl-pyrrolidin-1-yl)-propoxy]-2-phenyl-5,6-dihydro-2H-benzo[h]cinnolin-3-one], the melting point is 140 to 142 °C.

For `C[C@@H]1CCCN1CCCOc1ccc(-n2nc(C3CC3)ccc2=O)cc1` (as salt: fumarate) [Example 262, 6-Cyclopropyl-2-{4-[3-((R)-2-methyl-pyrrolidin-1-yl)-propoxy]-phenyl}-2H-pyridazin-3-one], the melting point was 51 to 55 °C.

For `CN1N=C(c2ccc(OC3CCN(C4CCCC4)CC3)cc2)C2CC2C1=O` (stereo not drawn) (as salt: HCl) [Example 260, 5-[4-(1-Cyclopentyl-piperidin-4-yloxy)-phenyl]-3-methyl-3,4-diaza-bicyclo[4.1.0]hept-4-en-2-one], the melting point was 264 to 266 °C.

For `CN1N=C(c2ccc(OC3CCN(C4CCC4)CC3)cc2)C2CC2C1=O` (stereo not drawn) (as salt: HCl) [Example 252, 5-[4-(1-Cyclobutyl-piperidin-4-yloxy)-phenyl]-3-methyl-3,4-diaza-bicyclo[4.1.0]hept-4-en-2-one], the melting point lay within 243 to 245 °C.

`CN1CCC(COc2ccc(-c3ccc(=O)n(C)n3)cc2)CC1` (as salt: HCl) [Example 71, 2-Methyl-6-[4-(1-methyl-piperidin-4-ylmethoxy)-phenyl]-2H-pyridazin-3-one] returned a melting point of 257 to 258 °C.

In turn, `Cc1cc(-c2ccc(OCCCN3CCC[C@H]3C)cc2)nn(Cc2ccccc2)c1=O` (as salt: HCl) [Example 43, 2-Benzyl-4-methyl-6-{4-[3-((R)-2-methyl-pyrrolidin-1-yl)-propoxy]-phenyl}-2H-pyridazin-3-one] yielded a melting point of 190 to 192 °C.

Turning to `CC(C)n1nc(-c2ccc(OCCCN3CCCCC3)cc2)ccc1=O` (as salt: HCl) [Example 3, 2-Isopropy1-6-[4-(3-piperidin-1-yl-propoxy)-pheny1]-2H-pyridazin-3-one], the melting point was 118 to 122 °C.

For `O=c1cc(-c2ccc(OCCCN3CCCCC3)cc2)cn[nH]1` (as salt: hydrochloride) [Example 97], the melting point was in the range of 249 to 250 °C.

`Cc1cccnc1-n1ncc(-c2ccc(OCCCN3CCC[C@H]3C)cc2)cc1=O` (as salt: hydrochloride) [Example 99, 2-(3-Methyl-pyridin-2-yl)-5-{4-[3-((R)-2-methylpyrrolidin-1-yl)-propoxy]-phenyl}-2H-pyridazin-3-one] came in with a melting point of 98 to 100 °C.

Take `CC(C)n1nc(-c2ccc(OCCCN3[C@H](C)CC[C@H]3C)cc2)c2sccc2c1=O` (as salt: HCl) [Example 31, 7-{4-[3-((2R,5R)-2,5-Dimethyl-pyrrolidin-1-yl)-propoxy]-phenyl}-5-isopropyl-5H-thieno[2,3-d]pyridazin-4-one]: the melting point was 106 °C (dec.).

Take `C[C@@H]1CCCN1CCCOc1ccc(C2=NN(Cc3ccccc3)C(=O)CC2)cc1` (as salt: HCl) [Example 17, 2-Benzyl-6-{4-[3-((R)-2-methyl-pyrrolidin-1-yl)-propoxy]-phenyl}-4,5-dihydro-2H-pyridazin-3-one]: the melting point lay within 56 to 58 °C.

On to `CC1CC(=O)NN=C1c1ccc(OCCCN2CCCC2)cc1` (racemic) (as salt: HCl) [Example 198, 5-Methyl-6-[4-(3-pyrrolidin-1-yl-propoxy)-phenyl]-4,5-dihydro-2H-pyridazin-3-one], for which the melting point is 161 to 163 °C.

`Cc1nn(-c2ccsc2)c(=O)cc1-c1ccc(OCCCN2CCC[C@H]2C)cc1` (as salt: HCl) [Example 108, 6-Methyl-5-{4-[3-((R)-2-methyl-pyrrolidin-1-yl)-propoxy]-phenyl}-2-thiophen-3-yl-2H-pyridazin-3-one] returned a melting point of 212 to 213 °C.

`C[C@@H](COc1ccc(-c2ccc(=O)n(C)n2)cc1)CN1CCC[C@H]1C` (as salt: HCl) [Example 82, 2-Methyl-6-{4-[(R)-2-methyl-3-((R)-2-methyl-pyrrolidin-1-yl)-propoxy]-phenyl}-2H-pyridazin-3-one] registered a melting point of 76 to 78 °C.

In turn, `C[C@@H]1CCCN1CCCOc1ccc(C2=NN(C)C(=O)C3CCCC23)cc1` (stereo partly drawn) (as salt: HCl) [Example 58, 2-Methyl-4-{4-[3-((R)-2-methyl-pyrrolidin-1-yl)-propoxy]-phenyl}-2,4a,5,6,7,7a-hexahydro-cyclopenta[d]pyridazin-1-one] had a melting point of under 50 °C.

For `O=c1ccc(-c2ccc(OC3CCN(C4CCC4)CC3)nc2)nn1-c1ccccn1` (as salt: HCl) [Example 149, 6-[6-(1-Cyclobutyl-piperidin-4-yloxy)-pyridin-3-yl]-2-pyridin-2-yl-2H-pyridazin-3-one], the melting point was in the range of 261 to 262 °C.
